Assay results taken from ChEMBL document CHEMBL4823282, “Novel Broad-Spectrum Antimicrobial Peptide Derived from Anoplin and Its Activity on Bacterial Pneumonia in Mice” (J Med Chem, 2021).
≈ marks a conversion by molar mass, not a printed value. Calls of active or inactive are those of the source. The calls are words filed in the database; no cut-off is given here. Where a SMILES comes first, the peptide text is derived from it. Bridges are numbered along the chain shown (N, C = ends). [ ]: non-standard residue; d: D form. The star is where a group is joined. X1 = CC[C@H](C)CCCCC(=O)*; Dab = NCC[C@H](N)C(=O)O

Columns and labels:
[1] = tested on: Klebsiella pneumoniae; assay: Synergistic antibacterial activity against Klebsiella pneumoniae ATCC 700603 at 2 times MIC incubated for 18 to 24 hrs in presence of 2 times MIC of gentamycin by broth microdilution assay based checkerboard assay; format: functional; details: time 18-24 hrs
[2] = Stability in BALB/C mouse serum measured up to 1440 mins by HPLC analysis; format: ADME, cell-free
[3] = tested on: Staphylococcus epidermidis; assay: Antibacterial activity against Staphylococcus epidermidis ATCC 12228 incubated for 18 hrs by CLSI based broth dilution method; format: functional
[4] = tested on: Fungi; assay: Antibacterial activity against fungi incubated for 18 hrs by CLSI based broth dilution method; format: functional
[5] = tested on: Escherichia coli; assay: Antibacterial activity against Escherichia coli ATCC 25922 incubated for 18 hrs by CLSI based broth dilution method; format: functional
[6] = tested on: Lipopolysaccharide (LPS); assay: Binding affinity to LPS (unknown origin) assessed as bacterial killing at 2 times MIC preincubated for 1 hr followed by Escherichia coli ATCC 25922 addition and measured after 2 hrs by absorbance method; details: time 3.0 hrs
[7] = Selectivity ratio of MHC10 for BALB/C mouse erythrocytes to MIC for fungi; format: toxicity
[8] = tested on: Staphylococcus aureus; assay: Disruption of bacterial cell membrane in Staphylococcus aureus ATCC 25923 assessed as increase in PI uptake incubated for 30 to 120 mins by FACS flow cytometry; format: functional, organism-based; details: time 30-120 min
[9] = tested on: Klebsiella pneumoniae; assay: Synergistic antibacterial activity against Klebsiella pneumoniae ATCC 700603 at 2 times MIC incubated for 18 to 24 hrs in presence of 2 times MIC of rifampicin by broth microdilution assay based checkerboard assay; format: functional; details: time 18-24 hrs
[10] = Selectivity ratio of MHC10 for BALB/C mouse erythrocytes to MIC for bacteria; format: toxicity
[11] = tested on: Cell membrane; assay: Induction of outer membrane permeabilization in Klebsiella pneumoniae ATCC 700603 measured within 1 mins by N-phenylnaphthylamine dye based fluorescent method; format: subcellular; details: Klebsiella pneumoniae 700603
[12] = tested on: Erythrocyte; assay: Hemolytic activity in BALB/C mouse erythrocytes incubated for 1 hr by absorbance method; format: ADME, cell-based
[13] = tested on: Staphylococcus aureus; assay: Antibacterial activity against Staphylococcus aureus ATCC 25923 incubated for 18 hrs by CLSI based broth dilution method; format: functional
[14] = tested on: Pseudomonas aeruginosa; assay: Antibacterial activity against Pseudomonas aeruginosa ATCC 27853 incubated for 18 hrs by CLSI based broth dilution method; format: functional
[15] = tested on: Pseudomonas aeruginosa; assay: Synergistic antibacterial activity against Pseudomonas aeruginosa ATCC 27853 at 2 times MIC incubated for 18 to 24 hrs in presence of 2 times MIC of rifampicin by broth microdilution assay based checkerboard assay; format: functional; details: time 18-24 hrs
[16] = Selectivity ratio of MHC10 for BALB/C mouse erythrocytes to MIC for gram-negative bacteria; format: toxicity
[17] = tested on: Escherichia coli; assay: Antibiofilm activity against Escherichia coli ATCC 25922 incubated for 24 hrs by crystal violet staining assay; format: functional, organism-based
[18] = tested on: Acinetobacter baumannii; assay: Antibacterial activity against Acinetobacter baumannii ATCC 19606 incubated for 18 hrs by CLSI based broth dilution method; format: functional; details: ATCC 19606 = CIP 70.34 = JCM 6841
[19] = tested on: Klebsiella pneumoniae; assay: Bactericidal activity against Klebsiella pneumoniae 700603 at 2MIC by time-kill assay relative to control; format: functional
[20] = tested on: Pseudomonas aeruginosa; assay: Antibacterial activity against gentamicin-resistant Pseudomonas aeruginosa ATCC 27853 incubated for 18 hrs by CLSI based broth dilution method; format: functional
[21] = tested on: Klebsiella pneumoniae; assay: Antibacterial activity against Klebsiella pneumoniae ATCC 700603 incubated for 18 hrs by CLSI based broth dilution method; format: functional
[22] = Toxicity in BALB/C mouse assessed as mouse death at 15 to 25 mg/kg, ip measured within 2 days; format: organism-based; details: in vivo, 48 h, dose 15-25 mg/kg, time 2 day
[23] = tested on: Bacteria; assay: Antibacterial activity against Gram-negative bacteria incubated for 18 hrs by CLSI based broth dilution method; format: functional
[24] = tested on: Staphylococcus aureus; assay: Antibacterial activity against Staphylococcus aureus ATCC 25923 at 0.5 to 1 times MIC incubated for 24 hrs by crystal violet staining based assay; format: functional, organism-based
[25] = tested on: Staphylococcus aureus; assay: Disruption of membrane integrity in Staphylococcus aureus ATCC 25923 assessed as membrane blebbing at 1 times MIC measured within 0.5 hrs by scanning electron microscopy; format: functional, organism-based
[26] = tested on: Cell membrane; assay: Induction of inner membrane permeabilization in Klebsiella pneumoniae ATCC 700603 at 0.5 to 4MIC using ONPG as substrate by spectroscopic method; format: subcellular; details: Klebsiella pneumoniae 700603, 0.5 to 4M
[27] = tested on: Cell membrane; assay: Induction of outer membrane permeabilization in Klebsiella pneumoniae ATCC 700603 at 2 to 4 MIC by N-phenylnaphthylamine dye based fluorescent method; format: subcellular; details: Klebsiella pneumoniae 700603, 2 to 4 M
[28] = Cytotoxicity against human glomerular mesangial cells incubated for 12 hrs by MTT assay; format: cell-based; details: Glomerular mesangial cell
[29] = tested on: Cell membrane; assay: Disruption of membrane integrity in Klebsiella pneumoniae ATCC 700603 assessed as bacterial death at 1 times MIC incubated for 0.5 to 2 hrs by scanning electron microscopy; format: subcellular; details: Klebsiella pneumoniae 700603, time 0.5-2 hrs
[30] = Toxicity in ip dosed BALB/C mouse measured within 14 days by Karber-method; format: organism-based; details: in vivo, time 14 day
[31] = tested on: Enterococcus faecalis; assay: Antibacterial activity against Enterococcus faecalis ATCC 29212 incubated for 18 hrs by CLSI based broth dilution method; format: functional
[32] = tested on: Cell membrane; assay: Disruption of membrane integrity in Staphylococcus aureus ATCC 25923 assessed as bacterial death at 1 times MIC measured within 0.5 hrs by scanning electron microscopy; format: subcellular
[33] = tested on: Bacteria; assay: Antibacterial activity against Gram-positive bacteria incubated for 18 hrs by CLSI based broth dilution method; format: functional
[34] = Selectivity ratio of MHC10 for BALB/C mouse erythrocytes to MIC for gram positive bacteria; format: toxicity
[35] = tested on: Cell membrane; assay: Disruption of membrane integrity in Staphylococcus aureus ATCC 25923 assessed as membrane shrinking at 1 times MIC measured within 0.5 hrs by scanning electron microscopy; format: subcellular
[36] = tested on: Bacteria; assay: Antibacterial activity against bacteria incubated for 18 hrs by CLSI based broth dilution method; format: functional
[37] = tested on: Escherichia coli; assay: Synergistic antibacterial activity against Escherichia coli ATCC 25922 at 2 times MIC incubated for 18 to 24 hrs in presence of 2 times MIC of rifampicin by broth microdilution assay based checkerboard assay; format: functional; details: time 18-24 hrs
[38] = tested on: Staphylococcus aureus; assay: Bactericidal activity against Staphylococcus aureus ATCC 25923 at 2MIC by time-kill assay; format: functional, organism-based; details: time 24.0 hrs, TDE = time-dependent effect
[39] = tested on: Pseudomonas aeruginosa; assay: Antibacterial activity against rifampin-resistant Pseudomonas aeruginosa ATCC 27853 incubated for 18 hrs by CLSI based broth dilution method; format: functional
[40] = tested on: Klebsiella pneumoniae; assay: Antibacterial activity against Klebsiella pneumoniae ATCC 700603 infected in BALB/C mouse assessed as reduction in bacterial load in lung at 5 mg/kg, ip measured within 24 hrs by agar plate counting method (reference value: 2.77 x 10^7 CFU/mg); format: functional
[41] = tested on: Bacillus subtilis; assay: Antibacterial activity against Bacillus subtilis ATCC 23857 incubated for 18 hrs by CLSI based broth dilution method; format: functional
[42] = tested on: Klebsiella pneumoniae; assay: Antibacterial activity against Klebsiella pneumoniae ATCC 700603 infected in BALB/C mouse assessed as reduction in alveolar shrinkage at 5 mg/kg, ip by hematoxylin and eosin staining based assay; format: functional, organism-based
[43] = 2M, TDE = time-dependent effect

SMILES: NCCCC[C@H](NC(=O)[C@H](CCCCN)NC(=O)[C@H](Cc1c[nH]c2ccccc12)NC(=O)[C@H](CCCCN)NC(=O)[C@H](CCCCN)NC(=O)[C@H](Cc1c[nH]c2ccccc12)NC(=O)[C@H](Cc1c[nH]c2ccccc12)NC(=O)[C@@H](N)CCCCN)C(=O)N[C@@H](Cc1c[nH]c2ccccc12)C(=O)N[C@@H](Cc1c[nH]c2ccccc12)C(N)=O (H-KWWKKWKKWW-NH2)
- FIC [1]: 0.5625
- half-life [2]: 50.1 min
- MIC [3]: 4 µM (≈ 6.36 µg/mL)
- MIC [4]: 4.76 µM (≈ 7.56 µg/mL)
- MIC [5]: 4 µM (≈ 6.36 µg/mL)
- Activity [6]: Dose-Dependent Effect
- selectivity ratio [7]: 28.2
- Activity [8]: Active
- FIC [9]: 0.3125
- selectivity ratio [10]: 28.2
- Activity [11]: Dose-Dependent Effect
- MHC10 [12]: 134.38 µM
- MIC [13]: 4 µM (≈ 6.36 µg/mL)
- MIC [14]: 4 µM (≈ 6.36 µg/mL)
- FIC [15]: 0.5625
- selectivity ratio [16]: 28.2
- Activity [17]: Dose-Dependent Effect
- MIC [18]: 8 µM (≈ 12.7 µg/mL)
- Activity [19]: 100%
- Activity [19, 43]: Tde
- MIC [20]: 2 µM (≈ 3.18 µg/mL)
- MIC [21]: 8 µM (≈ 12.7 µg/mL)
- Activity [22]: Toxic
- MIC [23]: 4.76 µM (≈ 7.56 µg/mL)
- Activity [24]: Active
- Activity [25]: Active
- Activity [26]: inactive
- Activity [27]: Active
- IC50 [28]: 40.2 µM
- Activity [29]: Active
- LD50 at 336 h [30]: 66.5 mg/kg
- MIC [31]: 8 µM (≈ 12.7 µg/mL)
- Activity [32]: Active
- MIC [33]: 4.76 µM (≈ 7.56 µg/mL)
- selectivity ratio at 18 h [34]: 28.2
- Activity [35]: Active
- MIC [36]: 4.76 µM (≈ 7.56 µg/mL)
- FIC [37]: 0.75
- Activity [38]: Tde
- MIC [39]: 2 µM (≈ 3.18 µg/mL)
- Activity [40]: 4.12 10^4CFU/mg
- MIC [41]: 4 µM (≈ 6.36 µg/mL)

SMILES: CC[C@H](C)CCCCC(=O)N[C@@H](CCN)C(=O)N[C@H](C(=O)N[C@@H](CCN)C(=O)N[C@H]1CCNC(=O)[C@H]([C@@H](C)O)NC(=O)[C@H](CCN)NC(=O)[C@H](CCN)NC(=O)[C@H](CC(C)C)NC(=O)[C@@H](Cc2ccccc2)NC(=O)[C@H](CCN)NC1=O)[C@@H](C)O (X1-[Dab]T[Dab][Dab][Dab][dF]L[Dab][Dab]T; lactam 4-C)
- FIC [1]: 0.5
- MIC [3]: 32 µM (≈ 38.5 µg/mL)
- MIC [4]: 12.3 µM (≈ 14.9 µg/mL)
- MIC [5]: 4 µM (≈ 4.81 µg/mL)
- Activity [6]: Dose-Dependent Effect
- selectivity ratio [7]: 4150
- Activity [42]: inactive
- Activity [8]: inactive
- FIC [9]: 0.3125
- selectivity ratio [10]: 4150
- MHC10 [12]: >= 512 uM
- MIC [13]: 16 µM (≈ 19.3 µg/mL)
- MIC [14]: 4 µM (≈ 4.81 µg/mL)
- FIC [15]: 0.3125
- selectivity ratio [16]: 90.5
- MIC [18]: 32 µM (≈ 38.5 µg/mL)
- Activity [19, 43]: Tde
- MIC [20]: 2 µM (≈ 2.41 µg/mL)
- MIC [21]: 4 µM (≈ 4.81 µg/mL)
- Activity [22]: Toxic
- MIC [23]: 5.66 µM (≈ 6.81 µg/mL)
- Activity [24]: Active
- Activity [25]: inactive
- Activity [26]: inactive
- IC50 [28]: ≥ 512 µM
- Activity [29]: Active
- LD50 at 336 h [30]: 16.4 mg/kg
- MIC [31]: 128 µM (≈ 154 µg/mL)
- Activity [32]: inactive
- MIC [33]: 26.9 µM (≈ 32.4 µg/mL)
- selectivity ratio at 18 h [34]: 19
- Activity [35]: inactive
- MIC [36]: 12.3 µM (≈ 14.9 µg/mL)
- FIC [37]: 0.125
- Activity [38]: Tde
- MIC [39]: 2 µM (≈ 2.41 µg/mL)
- Activity [40]: 3.21 10^4CFU/ml
- MIC [41]: 8 µM (≈ 9.63 µg/mL)
